Source: paper PMC6433685, “Histone deacetylase inhibitor LMK235 attenuates vascular constriction and aortic remodelling in hypertension” (Journal of Cellular and Molecular Medicine, 2019)

System: A10 cells
Test: Western blot in A10 cells
Assay type: cell-based, rat
Procedure: Cells were lysed in RIPA lysis buffer [150 mmol/L NaCl, 1% Triton X‐100, 1% sodium deoxycholate, 50 mmol/L Tris‐HCl pH 7.5, 2 mmol/L EDTA, 1 mmol/L PMSF, 1 mmol/L DTT, 1 mmol/L Na3VO4, and 5 mmol/L NaF] with protease inhibitor cocktail and sonicated. Approximately 30 μg of protein was separated by 10% sodium dodecyl sulphate‐polyacrylamide gel electrophoresis (SDS‐PAGE) and transferred to polyvinylidene difluoride (PVDF) membranes. After blocking with 5% skim milk for 1 hour, proteins were incubated with the primary antibodies overnight: anti‐cyclin D1 (1:1000), anti‐HDAC1 (1:1000), anti‐HDAC2 (1:1000), anti‐HDAC4 (1:1000) and anti‐HDAC5 (1:1000). As secondary antibodies, horse radish peroxidase‐linked antimouse or anti‐rabbit antibodies were used. Protein bands were visualized using Immobilon Western Detection Reagents (Millipore, Billerica, MA, USA). The Bio‐ID software was used to quantify protein expression (Vilber Lourmat, Eberhardzell, Germany).

Q: Which results are given for Cc1cc(C)cc(C(=O)NOCCCCCC(=O)NO)c1 [LMK235]?
A: protein expression of class I and IIa/b HDAC (A10 cells without CaMKIIα transfection, 18 h): reduced protein expression; CaMKIIα-induced cyclin D1 protein (CaMKIIα-transfected A10 cells): reduced; HDAC4 and HDAC5 proteins (CaMKIIα-transfected A10 cells): significantly reduced; protein expression of HDAC1 and HDAC2 (CaMKIIα-transfected A10 cells, 18 h): significantly reduced
